We go through four compounds from US5912229A, “Use of a pharmaceutical composition comprising an appetite-suppressing peptide” (Novo Nordisk Als, priority 1996, dated 1999).

Ends that are not written are not given here.

Assay [1] has as its system Mice. The assay is described as follows: Appetite suppression in mice, infant formula milk (Complan) consumption. The format is in vivo. How it is done: (§1) Mice were deprived of their normal feed for two days and given free access to a 20% sucrose solution on the first day of feed deprivation. After the 2-day feed deprivation period, mice were injected intraperitoneally with 0.5 ml of a solution containing the test substance. Thirty minutes after injection, individual mice were placed in one of eight 15 cm^2 test box with a stainless steel grid floor and a glass drinking tube which projected into the box. The drinking tube was connected to a reservoir containing a 20% sucrose solution, and the interior of the drinking tube contained an electrode enabling the detection of drinking contacts with the solution by measuring the flow of a weak (unnoticeable) electric current through mice by means of an electronic apparatus connected to the drinking tube electrode and the stainless steel grid floor. Consumption of the sucrose solution was measured over a 10 minute period by electronically recording the total amount of contact with the sucrose solution during the test session. The degree of appetite suppression produced by a given test substance was determined by statistical comparison of the duration of sucrose consumption by control (vehicle treated) mice with that of mice treated with a test substance. The degree of appetite suppression in a treated group of mice was expressed as percent of the control groups response.
The method is as in Example 5, but instead of 20% sucrose, a solution of infant formula milk (Complan®) is used. The test substance is dissolved in a vehicle consisting of phosphate buffered saline with 1% albumin. Test substances dissolved in vehicle are injected either intravenously (IV) in a volume of 100 microliters, or intra-cerebroventricularly (ICV) in a volume of 10 microliters.
Mice were tested for appetite suppression as described in Example 8 after treatment with a test substance consisting of synthetic human GLP-2.

Another assay has as its system fasted rats. As to conditions: cited from earlier work.
For assay [2], the system named is Mice. The assay is described as follows: Appetite suppression in mice, 20% sucrose solution consumption. The format is in vivo. The following applies: intraperitoneal injection, 50 micrograms. How it is done: as §1, with “response. […]” for “response.”

As for `CC[C@H](C)[C@H](NC(=O)[C@H](Cc1ccccc1)NC(=O)[C@H](CC(=O)O)NC(=O)[C@H](CCCNC(=N)N)NC(=O)[C@H](C)NC(=O)[C@H](C)NC(=O)[C@H](CC(C)C)NC(=O)[C@H](CC(N)=O)NC(=O)[C@H](CC(=O)O)NC(=O)[C@H](CC(C)C)NC(=O)[C@@H](NC(=O)[C@@H](NC(=O)[C@H](CC(N)=O)NC(=O)[C@H](CCSC)NC(=O)[C@H](CCC(=O)O)NC(=O)[C@H](CC(=O)O)NC(=O)[C@H](CO)NC(=O)[C@H](Cc1ccccc1)NC(=O)[C@H](CO)NC(=O)CNC(=O)[C@H](CC(=O)O)NC(=O)[C@H](C)NC(=O)[C@@H](N)Cc1c[nH]cn1)[C@@H](C)O)[C@@H](C)CC)C(=O)N[C@@H](CC(N)=O)C(=O)N[C@@H](Cc1c[nH]c2ccccc12)C(=O)N[C@@H](CC(C)C)C(=O)N[C@H](C(=O)N[C@@H](CCC(N)=O)C(=O)N[C@H](C(=O)N[C@@H](CCCCN)C(=O)N[C@H](C(=O)N[C@H](C(=O)N[C@@H](CC(=O)O)C(=O)O)[C@@H](C)O)[C@@H](C)CC)[C@@H](C)O)[C@@H](C)CC` [synthetic human GLP-2, human GLP-2], the “suppression of milk consumption” value in the assay with Mice [1] (ICV injection, 3 micrograms) amounted to 32%; with Mice [1] (ICV injection, 10 micrograms), 35%; in the assay with Mice [1] (IV injection, 3 micrograms), 24%.
Take GLP-1: in the assay with fasted rats (fasted rats, intracerebroventricular (ICV) administration), the effect on feeding entry is listed as “inhibited feeding”. Besides, the “effect on feeding behaviour” value in the assay with fasted rats (peripheral administration) was “no effect on feeding behaviour”.
For Glucagon, in the assay on fasted rats (fasted rats, intraperitoneal administration of pharmacological doses), the “effect on food intake” value is listed as “no effect on food intake”.
“HADGSFSDEMNTVLDNLATRDFINWLLHTKITD [synthetic porcine GLP-2, porcine GLP-2]”: the “suppression of sucrose consumption” value in the assay on Mice [2] came out at 38%.
